# Results from US6900026B2, “Methods for identifying compounds as antioxidants” (priority 1996, dated 2005).
# Columns and labels:
# Sod2CJE(−/−) mice = test: Survival (lifespan) of Sod2CJE(−/−) mice given daily intraperitoneal test compound; format: in vivo, mouse; details: for mean life-span: Sod2CJE(−/−) pups, Euk-8 daily 30 mg/kg, MnTBAP-treated pups
# Method: Mice lacking functional MnSOD have been described by Li et al. (1995) Nature Genetics 11:376-381, incorporated herein by reference. The genotypes of one-day-old pups are determined by genetic analysis of tissue surgically excised from the toe or tail tip (2-3 mm). In these mice the third exon of the Sod2 gene has been deleted, thus, destroying the ability to synthesize an active mitochondrial MnSOD.
# Litters were grouped into two sizes: large, >6 pups/litter of mutant, heterozygous and normal pups; and small, ≦6 Sod2CJE(−/−) pups/litter, in which the wild type and heterozygous pups were removed at three days of age to ensure that the homozygous mutant pups had unrestricted access to food and nurturing.
# (§1) In most experiments, MnTBAP was prepared for injection by dissolving in 0.1 M NaOH, diluted with sterile water to a dosage level of 5 mg MnTBAP/kg, and administered by daily intra-peritoneal (IP) injections of between 10 and 45 μl, 2 hours post weighing, from 3 days of age. In addition to homozygous mutant animals, both heterozygotes and wild-type animals were injected to serve as controls. Wild-type or heterozygous Sod2CJE pups were sacrificed at the same age as Sod2CJE(−/−) pups to serve as controls.
# Mouse pups are injected intraperitoneally with test compounds with a 50 microliter Hamilton syringe and a 31 G needle. The maximum volume administered to pups younger than 6 days of age is 20 μl. Injections are given daily, at the same time per day ±2 hours.
# The MnTBAP stock solution is diluted down to the administered dose, which is dependent on body weight. For MnTBAP, the dosage is 5 mg/kg per day. Pups are weighed daily to allow calculation of the appropriate dosage.
# Survival analysis was carried out by examining the animals daily to determine mortality, and entering the results into a life-table in the program Statistica (Statsoft, Tulsa, Okla.). Comparison between groups was carried out using the Kaplan and Meier survival function, non-parametric t-tests, and the Gehans Wilcoxon statistic from within the program to compare groups.
# In general, experiments are carried out with Sod2CJE(−/−) mice, starting at 3 days of age, and the mice are weighed and divided into test and control groups. Test mice receive the compound for which evaluation as an antioxidant is desired at a dosage which is below the level of toxicity. Unless otherwise indicated, the test compound is administered in a pharmaceutically acceptable carrier by the intraperitoneal route. Unless otherwise determined to be advantageous, the test compound is administered at the same time each day (±2 hours).
# Sod2CJE(−/−) animals [1] = test: Lipid in liver by Oil red-O staining, treated Sod2CJE(−/−) animals; format: in vivo, mouse; parameters: key to Lipid Mode (score): 0=no observable lipid in sections; 1=mild diffuse speckled distribution of lipid; 2=more intense speckled pattern; 3=coalescence of small lipid droplets into large intercellular droplets; 4=massive intercellular lipid droplet accumulation; details: for accumulation of lipid in the liver: treated MnSOD-deficient homozygotes, qualitative; for Lipid % Control / Lipid Mean (score) / Lipid Mode (score): MnTBAP treated Sod2CJE(−/−); for Lipid % Control: control = untreated (−/−) 6-10 days; for Lipid Mean (score) / Lipid Mode (score): score 0-4
# Source text: (see also Table 2). […] The level of lipid in liver sections was scored as follows: 0=no observable lipid in sections, 1=mild diffuse speckled distribution of lipid, 2=more intense speckled pattern, 3=coalescence of small lipid droplets into large intercellular droplets, and 4=massive intercellular lipid droplet accumulation. Wild-type or heterozygotes treated with MnTBAP for 3 weeks had no observable difference in the morphology of the liver compared to untreated controls (+/+or +/−). The livers of 25 MnTBAP treated Sod2CJE(−/−) animals were examined at 12, 14 and 17 days of age (Table 2) and compared with treated wild type animals.
# Assessment of the effect of MnTBAP treatment on liver morphology was carried out by blind assessment of wild-type and heterozygous animals chronically treated with compound for 3 weeks. Hematoxylin and Eosin stained sections from 27 treated homozygous normal (+/+) and heterozygous (+/−) animals were compared with 2 untreated control animals. To evaluate lipid in the liver of treated homozygous mutant MnSOD(−/−) animals, 8 u frozen sections were prepared and stained with Oil red O [Li et al. (1995) supra]. Each section was evaluated for the quantity and size of lipid droplets by arbitrarily scoring with a numerical value (Table 2). The ratings of multiple animals were then averaged.
# Sod2CJE(−/−) animals [2] = test: Behavioral analysis and neuropathology of treated Sod2CJE(−/−) animals; format: in vivo; details: for neurological and behavioral phenotype: treated Sod2CJE(−/−) mice
# Method: Treated Sod2CJE(−/−) animals were observed daily from 10 days through to greater than five weeks for behavioral abnormalities compared to litter mate controls. Daily video recordings of up to 10 minutes were made to longitudinally track the development of behavioral changes. A total of 187 video recordings were made of 63 animals from 10 to 23 days of age.
# For pathology, the brains were removed from the sacrificed animals and fixed in 10% buffered formalin for up to 7 days. They were then processed, embedded, and sectioned. In some cases representative sections were made every 20 sections or so at 7 microns thickness throughout the brain and stained with hematoxylin and eosin for examination by light microscopy. In other cases, the entire brain was sectioned at 8 microns throughout. Fifteen Sod2CJE(−/−) brains between 11 and 23 days of age were examined by hematoxylin and eosin staining and light microscopy in coronal, sagittal, or horizontal orientations with 17 controls in a blinded study (4 heterozygotes and 6 wild-types treated; and 2 heterozygotes and 5 wild-types untreated).
# During the course of an experiment, each mouse is evaluated daily for weight, lethargy, lack of appetite, its vital signs and for any indication of neurological disorders (observed for circling behavior, dystonia, trembling or the like. Video records can be made for later evaluation, for example for side-by-side comparisons or for observing changes over time. Cardiac histopathology and central nervous system tissue analysis are carried out after death of the animal or after sacrifice of the animal.
# [3] = test system: succinate dehydrogenase (SDH, Complex II); test: Histochemical staining of succinate dehydrogenase (SDH, Complex II) in tissue of treated MnSOD-deficient homozygotes; format: in vivo, mouse
# Source text: Fat accumulates in the liver, where it can be detected by Oil Red O staining. […] By contrast, in Euk-8 treated animals both the lipid accumulation in the liver and SDH inhibition are rescued.
# Sod2CJE(−/−) animals [4] = test: Cardiac measurements and histology in treated Sod2CJE(−/−) animals; format: in vivo, mouse; details: 20-21 days of age
# Method: Cardiac dimensions were measured at 21 days of age for wild-type and heterozygous animals. These were compared with homozygous mutant animals treated with MnTBAP as described [Li et al. (1995) supra].
# [5] = test system: control animals (+/+, +/−); test: Pathology of liver, brain and heart in treated control animals (+/+, +/−); format: in vivo, mouse; details: control animals (+/+, +/−) treated with MnTBAP
# Method: as §1
# For pathology, the brains were removed from the sacrificed animals and fixed in 10% buffered formalin for up to 7 days. They were then processed, embedded, and sectioned. In some cases representative sections were made every 20 sections or so at 7 microns thickness throughout the brain and stained with hematoxylin and eosin for examination by light microscopy. In other cases, the entire brain was sectioned at 8 microns throughout. […]
# Assessment of the effect of MnTBAP treatment on liver morphology was carried out by blind assessment of wild-type and heterozygous animals chronically treated with compound for 3 weeks. […] Each section was evaluated for the quantity and size of lipid droplets by arbitrarily scoring with a numerical value (Table 2). […]
# [6] = Transmission of orally administered compound to the milk of nursing mothers; format: in vivo, mouse
# Source text: The skilled artisan understands how to test a particular compound for its toxicity in a particular mammal, for its ability to cross the blood-brain barrier and for its ability to enter the bloodstream and/or the cerebrospinal fluid. Preferred compounds are those which readily enter circulation and the central nervous system so that maximum amelioration of any disorder or disease resulting from oxidative damage, especially from superoxide radical.
# [7] = in vitro; cited from earlier work
# cells = details: in vitro; cited from earlier work
# [8] = mice, after the barrier is established at about 7-12 days of age; cited from earlier work
# [9] = SOD2−/− mice treated with free radical scavenging compounds (Table 4)
# [10] = Sod2CJE(−/−), Large litter size (>6 pups), with MnTBAP, N=16
# [11] = Sod2CJE(−/−), Small litter size (≦6 pups), with MnTBAP, N=15
# [12] = Sod2CJE(−/−), all litter sizes, with MnTBAP 5 mg/kg daily IP, N=31, days of age
structure (smiles),measurement,setting,value
[Cl-].[Mn+3].[O-]c1ccccc1C=NCCN=Cc1ccccc1[O-] [Euk-8],Mean Lifespan,Sod2CJE(−/−) mice; [9],22 days
same,mean life-span,Sod2CJE(−/−) mice,22 days
same,accumulation of lipid in the liver,Sod2CJE(−/−) animals [1],rescued
same,crossing of the blood brain barrier,Sod2CJE(−/−) animals [2]; concluded from beneficial effects on neuronal function in Sod2CJE(−/−) mouse,crosses the blood brain barrier
same,neurological and behavioral phenotype,Sod2CJE(−/−) animals [2],rescue of the neurological and behavioral phenotype
same,spongiform encephalopathy,"Sod2CJE(−/−) animals [2]; treated Sod2CJE(−/−) mouse, at 17 days",absent
same,tissue SDH inhibition,[3],rescued
"O=C(O)c1ccc(-c2c3nc(c(-c4ccc(C(=O)O)cc4)c4ccc([nH]4)c(-c4ccc(C(=O)O)cc4)c4nc(c(-c5ccc(C(=O)O)cc5)c5ccc2[nH]5)C=C4)C=C3)cc1.[Mn] [MnTBAP, Manganese 5,10,15,20-tetrakis(4-benzoic acid) porphyrin]",mean age of survival,"Sod2CJE(−/−) mice; MnSOD(−/−) mice, 5 mg/kg daily intraperitoneal, all litters, n=31, ±SD",16.4 ± 5.8 days
same,proportion of mice that lived to greater than or equal to 20 days of age,"Sod2CJE(−/−) mice; MnSOD(−/−) mice, 5 mg/kg daily intraperitoneal, n=31",70%
same,Mean Lifespan,Sod2CJE(−/−) mice; [9],14 days
same,mean life-span,Sod2CJE(−/−) mice,16 days
same,Mean Lifespan,Sod2CJE(−/−) mice; [10],16.1
same,Median (lifespan),Sod2CJE(−/−) mice; [10],21
same,Mean Lifespan,Sod2CJE(−/−) mice; [11],16.6
same,Median (lifespan),Sod2CJE(−/−) mice; [11],19
same,Mean Lifespan,Sod2CJE(−/−) mice; [12],16.4
same,Median (lifespan),Sod2CJE(−/−) mice; [12],20
same,mean age of survival,"Sod2CJE(−/−) mice; litters of more than six pups (unrestricted), ±SD",16.1 ± 6.6 days
same,mean survival,"Sod2CJE(−/−) mice; litters with six or less pups (restricted), ±SD",11.4 ± 4.8 days
same,proportion of treated Sod2CJE(−/−) animals with liver lipid levels comparable to untreated Sod2CJE(−/−) animals of 6-10 days,"Sod2CJE(−/−) animals [1]; 25 treated animals examined at 12, 14 and 17 days of age (2/25)",8%
same,Lipid % Control,"Sod2CJE(−/−) animals [1]; 12 days old, n=9",23%
same,Lipid Mean (score),"Sod2CJE(−/−) animals [1]; 12 days old, n=9",0.9
same,Lipid Mode (score),"Sod2CJE(−/−) animals [1]; 12 days old, n=9",0
same,Lipid % Control,"Sod2CJE(−/−) animals [1]; 14 days old, n=8",23%
same,Lipid Mean (score),"Sod2CJE(−/−) animals [1]; 14 days old, n=8",0.9
same,Lipid Mode (score),"Sod2CJE(−/−) animals [1]; 14 days old, n=8",0.5
same,Lipid % Control,"Sod2CJE(−/−) animals [1]; 17 days old, n=8",40%
same,Lipid Mean (score),"Sod2CJE(−/−) animals [1]; 17 days old, n=8",1.6
same,Lipid Mode (score),"Sod2CJE(−/−) animals [1]; 17 days old, n=8",2
same,accumulation of lipid in the liver,Sod2CJE(−/−) animals [1],reduced
same,effect on cardiac defect (dilated cardiomyopathy),Sod2CJE(−/−) animals [4],prevented the cardiac defect
same,neurological and behavioral phenotype,Sod2CJE(−/−) animals [2],progressive motor impairment
same,toxicity (pathological changes in liver or brain),[5],not toxic
same,tissue SDH inhibition,[3],still inhibited
same,transmission to the milk of nursing mothers,[6],insufficient transmission
same,superoxide-degrading activity relative to Sod1/Sod2 when compared by weight,[7],about 10%
same,permeability to cells,cells,permeable to cells
same,crossing of the blood-brain barrier,[8],does not cross the blood-brain barrier
